Each block holds one compound with its values, some of them ahead of it.
Test system: 186277-243-T-J2-PDC multi-cell spheroid viability
Assay: Anticancer human tumor 186277-243-T-J2-PDC patient-derived colon adenocarcinoma cell line growth inhibition [PI3K]
Settings: for viability, T/C: stronger effect = lower value
Source text: Combinatorial screen of targeted agents with the PI3K inhibitors inavolisib, alpelisib, duvelisib, and copanlisib in multi-cell type tumor spheroids
A high-throughput screen of multi-cell type tumor spheroids was designed to identify active combinations of targeted small molecules and PI3K pathway inhibitors. Complex spheroids include a stromal component modeled by human endothelial cells (HUVEC) and fibroblasts modeled by human mesenchymal stem cells (MSCs). The concentration ranges selected for each drug and investigational agent were based upon clinically achievable concentrations if the clinical Cmax of the agent was known.
Compounds. The drugs and investigational agents: inavolisib (NSC800729), alpelisib (NSC765974), duvelisib (NSC772469), copanlisib (NSC816437), ipatasertib (NSC767898), afuresertib (NSC778305), talazoparib (NSC767125), sapanisertib (NSC764658), selumetinib (NSC741078), tovorafenib (DAY101, NSC766906), vemurafenib (NSC761431), ravoxertinib (NSC781343), sotorasib (NSC818433), MRTX1133 (NSC 836407), abemaciclib (NSC 768073), palbociclib (NSC758247), venetoclax (NSC 766270), SY5609 (NSC837396), enzalutamide (NSC755605), and darolutamide (NSC825331), were obtained from the National Cancer Institute (NCI) Developmental Therapeutics Program Chemical Repository. The FDA-approved anticancer drug set is available from the NCI Developmental Therapeutics Program. […] The stock solutions were prepared in dimethyl sulfoxide (DMSO, Sigma-Aldrich, St. Louis, MO, cat. D2650) at 800-fold the tested concentration and stored at -70 degrees C prior to their use. All drugs and investigational agents were tested over a range starting from a high concentration at or near the clinical Cmax and decreasing in half-log increments. If the clinical Cmax for an agent had not been determined, the highest concentration tested was 10 microM.
Cell Culture. All cells were maintained in an incubator at 37 degrees C and 5% CO2 with 95% humidity. The PDC lines were cultured according to standard operating procedures established by the NCI PDMR (https://pdmr.cancer.gov/sops/default.htm). All PDCs were thawed and cultured in Matrigel-coated flasks prepared with a working solution of 1X Ham's F-12 nutrient mix, without supplementation (Invitrogen, Waltham, MA, cat. 11765054), 100 U/mL penicillin-streptomycin (Invitrogen, cat. 15140122), and 2.5% Matrigel (Corning Inc., Corning, NY, cat. 354248) for the first three passages. The 354836-022-R-J1-PDC, 475296-252-R-J1-PDC, and 997726-040-R-J2-PDC lines were cultured in 6A media, which includes advanced DMEM/F-12 (Thermo Fisher Scientific, cat. 12634028), 10 mM HEPES (Thermo Fisher Scientific, cat. 15630080), 1X GlutaMAX supplement (Thermo Fisher Scientific, cat. 35050061), 0.1 mg/mL primocin (InvivoGen, San Diego, CA, cat. ant-pm-2), 10% defined fetal bovine serum, heat inactivated (HyClone Laboratories Inc., Logan, UT, cat. SH30070.03HI), 50% L-WRN conditioned media (ATCC, cat. CRL-3276), 1.25 mM N-Acetyl-L-cysteine (Sigma-Aldrich, cat. A9165), 10 mM nicotinamide (Sigma-Aldrich, cat. N0636), 1X B-27 supplement (Thermo Fisher Scientific, cat. 17504044), 1X N-2 supplement (Thermo Fisher Scientific, cat. 17502048), and 10 microM Y-27632 dihydrochloride (Tocris Bioscience, Bristol, United Kingdom, cat. 1254). The 624824-186-R-J2-PDC line was cultured in 6C/Colon 1B media, which includes all 6A media components plus 50 ng/mL human EGF recombinant protein (Thermo Fisher Scientific, cat. PHG0311). […]

[1] = curve of first compound, second compound 0.00316 µM
[2] = curve of first compound, second compound 0.01 µM
[3] = curve of first compound, second compound 0.0316 µM
[4] = curve of first compound, second compound 0.1 µM
[5] = curve of first compound, second compound 0.316 µM
[6] = curve of first compound, second compound 1 µM
[7] = second compound 0.00316 µM, first compound 0.0316 µM
[8] = second compound 0.00316 µM, first compound 0.1 µM
[9] = second compound 0.00316 µM, first compound 0.316 µM
[10] = second compound 0.00316 µM, first compound 1 µM
[11] = second compound 0.00316 µM, first compound 3.16 µM
[12] = second compound 0.00316 µM, first compound 10 µM
[13] = second compound 0.01 µM, first compound 0.0316 µM
[14] = second compound 0.01 µM, first compound 0.1 µM
[15] = second compound 0.01 µM, first compound 0.316 µM
[16] = second compound 0.01 µM, first compound 1 µM
[17] = second compound 0.01 µM, first compound 3.16 µM
[18] = second compound 0.01 µM, first compound 10 µM
[19] = second compound 0.0316 µM, first compound 0.0316 µM
[20] = second compound 0.0316 µM, first compound 0.1 µM
[21] = second compound 0.0316 µM, first compound 0.316 µM
[22] = second compound 0.0316 µM, first compound 1 µM
[23] = second compound 0.0316 µM, first compound 3.16 µM
[24] = second compound 0.0316 µM, first compound 10 µM
[25] = second compound 0.1 µM, first compound 0.0316 µM
[26] = second compound 0.1 µM, first compound 0.1 µM
[27] = second compound 0.1 µM, first compound 0.316 µM
[28] = second compound 0.1 µM, first compound 1 µM
[29] = second compound 0.1 µM, first compound 3.16 µM
[30] = second compound 0.1 µM, first compound 10 µM
[31] = second compound 0.316 µM, first compound 0.0316 µM
[32] = second compound 0.316 µM, first compound 0.1 µM
[33] = second compound 0.316 µM, first compound 0.316 µM
[34] = second compound 0.316 µM, first compound 1 µM
[35] = second compound 0.316 µM, first compound 3.16 µM
[36] = second compound 0.316 µM, first compound 10 µM
[37] = second compound 1 µM, first compound 0.0316 µM
[38] = second compound 1 µM, first compound 0.1 µM
[39] = second compound 1 µM, first compound 0.316 µM
[40] = second compound 1 µM, first compound 1 µM
[41] = second compound 1 µM, first compound 3.16 µM
[42] = second compound 1 µM, first compound 10 µM
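Also: spheroids exposed to compounds for seven days before viability reading.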
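For viability, T/C in this document: 100% = DMSO vehicle control viability.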

IC50 [1]: 4580 nM | IC50 [2]: 4540 nM | IC50 [3]: 4360 nM | IC50 [4]: 3650 nM | IC50 [5]: 3380 nM | IC50 [6]: < 31.6 nM
Compound: CC1(C)CCC(CN2CCN(c3ccc(C(=O)NS(=O)(=O)c4ccc(NCC5CCOCC5)c([N+](=O)[O-])c4)c(Oc4cnc5[nH]ccc5c4)c3)CC2)=C(c2ccc(Cl)cc2)C1 + CC(Nc1ccc2c(c1)OCCn1cc(N3C(=O)OCC3C(F)F)nc1-2)C(N)=O
viability, T/C [7]: 97.8% | viability, T/C [8]: 99.7% | viability, T/C [9]: 95.3% | viability, T/C [10]: 91.9% | viability, T/C [11]: 71.2% | viability, T/C [12]: 5.92% | viability, T/C [13]: 107% | viability, T/C [14]: 94.3% | viability, T/C [15]: 95.1% | viability, T/C [16]: 95.3% | viability, T/C [17]: 71.1% | viability, T/C [18]: 3.55% | viability, T/C [19]: 106% | viability, T/C [20]: 108% | viability, T/C [21]: 99.4% | viability, T/C [22]: 89.4% | viability, T/C [23]: 71% | viability, T/C [24]: 2.8% | viability, T/C [25]: 98.6% | viability, T/C [26]: 99.9% | viability, T/C [27]: 87.5% | viability, T/C [28]: 78.3% | viability, T/C [29]: 60.3% | viability, T/C [30]: 2.37% | viability, T/C [31]: 86.1% | viability, T/C [32]: 83.3% | viability, T/C [33]: 67.5% | viability, T/C [34]: 71.1% | viability, T/C [35]: 56.2% | viability, T/C [36]: 0.63% | viability, T/C [37]: 47.5% | viability, T/C [38]: 44.8% | viability, T/C [39]: 46.3% | viability, T/C [40]: 46.1% | viability, T/C [41]: 34.4% | viability, T/C [42]: 0.99%

IC50 [1]: 65.3 nM | IC50 [2]: < 31.6 nM | IC50 [3]: < 31.6 nM | IC50 [4]: < 31.6 nM | IC50 [5]: < 31.6 nM | IC50 [6]: < 31.6 nM
Compound: C#Cc1c(F)ccc2cc(O)cc(-c3ncc4c(N5CC6CCC(C5)N6)nc(OCC56CCCN5CC(F)C6)nc4c3F)c12 (stereo not drawn) + COc1c(OCCCN2CCOCC2)ccc2c3n(c(=NC(=O)c4cnc(N)nc4)nc12)CCN3
viability, T/C [7]: 78.4% | viability, T/C [8]: 32.4% | viability, T/C [9]: 17.5% | viability, T/C [10]: 8.98% | viability, T/C [11]: 9.36% | viability, T/C [12]: 6.51% | viability, T/C [13]: 47.8% | viability, T/C [14]: 20.9% | viability, T/C [15]: 13.7% | viability, T/C [16]: 10.1% | viability, T/C [17]: 8.35% | viability, T/C [18]: 5.59% | viability, T/C [19]: 16.9% | viability, T/C [20]: 7.55% | viability, T/C [21]: 10.6% | viability, T/C [22]: 3.62% | viability, T/C [23]: 3.8% | viability, T/C [24]: 4.03% | viability, T/C [25]: 5.72% | viability, T/C [26]: 4.46% | viability, T/C [27]: 3% | viability, T/C [28]: 3.2% | viability, T/C [29]: 1.5% | viability, T/C [30]: 0.18% | viability, T/C [31]: 3.44% | viability, T/C [32]: 0.58% | viability, T/C [33]: 0.7% | viability, T/C [34]: 0.32% | viability, T/C [35]: 0.85% | viability, T/C [36]: 0.1% | viability, T/C [37]: 0.56% | viability, T/C [38]: 0.38% | viability, T/C [39]: 0.53% | viability, T/C [40]: 0.17% | viability, T/C [41]: 0.22% | viability, T/C [42]: 0.16%

IC50 [3]: 3560 nM | IC50 [4]: 4030 nM | IC50 [5]: 2310 nM | IC50 [6]: 541 nM | IC50 (curve of first compound, second compound 3.16 µM): < 31.6 nM | IC50 (curve of first compound, second compound 10 µM): < 31.6 nM
Compound: CC1(C)CCC(Nc2ncc(C(F)(F)F)c(-c3c[nH]c4c(P(C)(C)=O)c(C#N)ccc34)n2)CN1 (stereo not drawn) + Cc1nc(NC(=O)N2CCCC2C(N)=O)sc1-c1ccnc(C(C)(C)C(F)(F)F)c1
viability, T/C [19]: 76.1% | viability, T/C [20]: 55.9% | viability, T/C [21]: 57.9% | viability, T/C [22]: 61.4% | viability, T/C [23]: 55.8% | viability, T/C [24]: 0.33% | viability, T/C [25]: 81.5% | viability, T/C [26]: 54.2% | viability, T/C [27]: 56.7% | viability, T/C [28]: 59% | viability, T/C [29]: 65% | viability, T/C [30]: 0.22% | viability, T/C [31]: 77% | viability, T/C [32]: 65.4% | viability, T/C [33]: 55.4% | viability, T/C [34]: 60.7% | viability, T/C [35]: 48.7% | viability, T/C [36]: 0.44% | viability, T/C [37]: 63.4% | viability, T/C [38]: 57.9% | viability, T/C [39]: 49.5% | viability, T/C [40]: 49.2% | viability, T/C [41]: 28.3% | viability, T/C [42]: 0.27% | viability, T/C (second compound 3.16 µM, first compound 0.0316 µM): 31% | viability, T/C (second compound 3.16 µM, first compound 0.1 µM): 34.3% | viability, T/C (second compound 3.16 µM, first compound 0.316 µM): 21.6% | viability, T/C (second compound 3.16 µM, first compound 1 µM): 29.4% | viability, T/C (second compound 3.16 µM, first compound 3.16 µM): 8.8% | viability, T/C (second compound 3.16 µM, first compound 10 µM): 0.65% | viability, T/C (second compound 10 µM, first compound 0.0316 µM): 7.49% | viability, T/C (second compound 10 µM, first compound 0.1 µM): 7.95% | viability, T/C (second compound 10 µM, first compound 0.316 µM): 8.74% | viability, T/C (second compound 10 µM, first compound 1 µM): 4.41% | viability, T/C (second compound 10 µM, first compound 3.16 µM): 5.08% | viability, T/C (second compound 10 µM, first compound 10 µM): 1.35%

IC50 (compound alone, run of 05/09/2023): 51.4 nM [middle of 8 runs]
Compound: COc1c(OCCCN2CCOCC2)ccc2c3n(c(=NC(=O)c4cnc(N)nc4)nc12)CCN3
viability, T/C (compound 0.00316 µM): 98.7% [middle of 8 runs] | viability, T/C (compound 0.01 µM): 97.8% [middle of 8 runs] | viability, T/C (compound 0.0316 µM): 73.4% [middle of 8 runs] | viability, T/C (compound 0.1 µM): 16.7% [middle of 8 runs] | viability, T/C (compound 0.316 µM): 6.29% [middle of 8 runs] | viability, T/C (compound 1 µM): 2.87% [middle of 8 runs]
